Converted amounts (≈) assume the structure as drawn.
How the values were obtained:
[1] = Growth inhibition of human Panel NCI-58 (58 carcinoma cell lines) cells by SRB method; assay type: functional
[2] = system: UO-31; assay: Cytotoxicity against human UO-31 cells by SRB method; assay type: functional; settings: read-out: LC50 (the source's name)
[3] = system: UO-31; assay: Growth inhibition of human UO-31 cells by SRB method; assay type: functional
[4] = Cytotoxicity against human Panel NCI-58 (58 carcinoma cell lines) cells by SRB method; assay type: functional; settings: read-out: LC50 (the source's name)
[5] = biological target: Carbonic anhydrase 1 (Homo sapiens, UniProt P00915); assay: Inhibition of human CA1 by UV spectrophotometric analysis
Sequence of Carbonic anhydrase 1 (P00915 whole entry): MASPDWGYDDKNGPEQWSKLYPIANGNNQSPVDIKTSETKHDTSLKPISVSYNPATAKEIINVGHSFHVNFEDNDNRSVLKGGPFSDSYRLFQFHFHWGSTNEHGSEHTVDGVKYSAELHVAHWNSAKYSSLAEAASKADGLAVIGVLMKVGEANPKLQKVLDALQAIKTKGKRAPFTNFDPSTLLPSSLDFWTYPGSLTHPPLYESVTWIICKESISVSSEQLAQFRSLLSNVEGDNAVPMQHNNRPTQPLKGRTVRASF

[6] = biological target: Carbonic anhydrase 2 (Homo sapiens, UniProt P00918); assay: Inhibition of human CA2 by UV spectrophotometric analysis
[7] = biological target: Acetylcholinesterase (Homo sapiens, UniProt P22303)
Sequence of Acetylcholinesterase (P22303 whole entry): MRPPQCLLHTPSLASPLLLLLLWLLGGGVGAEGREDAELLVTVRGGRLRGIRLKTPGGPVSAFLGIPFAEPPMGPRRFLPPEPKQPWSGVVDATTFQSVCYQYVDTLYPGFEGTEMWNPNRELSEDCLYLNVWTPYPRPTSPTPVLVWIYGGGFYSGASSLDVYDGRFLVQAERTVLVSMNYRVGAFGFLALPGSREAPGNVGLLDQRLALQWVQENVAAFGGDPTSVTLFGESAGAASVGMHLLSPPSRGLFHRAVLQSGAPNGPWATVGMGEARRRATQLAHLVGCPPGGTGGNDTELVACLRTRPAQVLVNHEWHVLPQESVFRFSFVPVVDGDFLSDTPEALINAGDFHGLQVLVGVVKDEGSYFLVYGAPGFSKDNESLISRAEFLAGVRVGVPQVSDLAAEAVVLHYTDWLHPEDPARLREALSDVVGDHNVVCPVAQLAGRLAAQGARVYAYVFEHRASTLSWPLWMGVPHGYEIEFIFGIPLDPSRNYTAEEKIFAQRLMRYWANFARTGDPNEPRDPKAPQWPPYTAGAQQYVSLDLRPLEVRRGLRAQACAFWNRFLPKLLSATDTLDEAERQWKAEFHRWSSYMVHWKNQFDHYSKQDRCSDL

[8] = system: ASPC1; assay: Cytotoxicity against human ASPC1 cells; assay type: functional, cell-based
[9] = Cytotoxicity against human PBMC cells; assay type: functional, cell-based
[10] = system: Jurkat; assay: Cytotoxicity against human Jurkat T cells; assay type: functional, cell-based
[11] = system: Mus musculus; assay: Anticonvulsant activity in BALB/c mouse assessed as increase in survival rate at 60 mg/kg, ip by PTZ method relative to control; assay type: functional
[12] = system: A549; assay: Cytotoxicity against human A549 cells by SRB assay; assay type: functional
[13] = system: HeLa; assay: Cytotoxicity against human HeLa cells by SRB assay; assay type: functional
[14] = system: DU-145; assay: Cytotoxicity against human DU-145 cells by SRB assay; assay type: functional
[15] = system: HepG2; assay: Cytotoxicity against human HepG2 cells by SRB assay; assay type: functional
[16] = system: Mycobacterium tuberculosis; assay: Antimycobacterial activity against Mycobacterium tuberculosis; assay type: functional
[17] = system: Mycolicibacterium smegmatis; assay: Antimycobacterial activity against Mycobacterium smegmatis; assay type: functional
[18] = system: Staphylococcus aureus; assay: microbe, parasite or virus in culture
[19] = system: Candida albicans; assay: microbe, parasite or virus in culture
[20] = system: Plasmodium falciparum; assay: Antimalarial activity against chloroquine-sensitive Plasmodium falciparum NF54 measured after 72 hrs by giemsa staining based analysis; assay type: functional, organism-based; settings: NF54, 72 h
[21] = system: Hemozoin; assay: Inhibition of Beta-hematin in Plasmodium berghei
[22] = system: Plasmodium falciparum; assay: In vivo antimalarial activity against Plasmodium berghei K173 infected in mouse assessed as reduction in parasitemia at 50 mg/kg, ip measured after 6 days by giemsa staining based microscopic analysis relative to control; assay type: functional; set-up: scale not given: the % may be the effect or the level left; settings: time 6 day
[23] = system: Plasmodium falciparum; assay: In vivo antimalarial activity against Plasmodium berghei K173 infected in mouse assessed as reduction in parasitemia at 100 mg/kg, ip measured after 6 days by giemsa staining based microscopic analysis relative to control; assay type: functional; set-up: scale not given: the % may be the effect or the level left; settings: time 6 day
[24] = system: Plasmodium falciparum; assay: In vivo antimalarial activity against Plasmodium berghei K173 infected in mouse assessed as chemo-supression percentage at 50 mg/kg, ip by giemsa staining based microscopic analysis relative to control; assay type: functional
[25] = system: Plasmodium falciparum; assay: In vivo antimalarial activity against Plasmodium berghei K173 infected in mouse assessed as chemo-supression percentage at 100 mg/kg, ip by giemsa staining based microscopic analysis relative to control; assay type: functional
[26] = system: Bordetella bronchiseptica; assay: Antibacterial activity against Bordetella bronchiseptica ATCC 4617 by plate dilution method; assay type: functional
[27] = system: Candida albicans; assay: Antifungal activity against Candida albicans ATCC 2091 by plate dilution method relative to control; assay type: functional
[28] = system: Aspergillus niger; assay: Antifungal activity against Aspergillus niger MTCC 281 by plate dilution method relative to control; assay type: functional
[29] = system: Aspergillus flavus; assay: Antifungal activity against Aspergillus flavus MTCC 277 by plate dilution method relative to control; assay type: functional
[30] = system: Monascus purpureus; assay: Antifungal activity against Monascus purpureus MTCC 369 by plate dilution method relative to control; assay type: functional
[31] = system: Penicillium citrinum; assay: Antifungal activity against Penicillium citrinum NCIM 768 by plate dilution method relative to control; assay type: functional
[32] = system: Staphylococcus aureus; assay: Antibacterial activity against Staphylococcus aureus ATCC 25923 by plate dilution method; assay type: functional
[33] = system: Enterococcus faecalis; assay: Antibacterial activity against Enterococcus faecalis ATCC 29212 by plate dilution method; assay type: functional
[34] = system: Staphylococcus epidermidis; assay: Antibacterial activity against Staphylococcus epidermidis ATCC 12228 by plate dilution method; assay type: functional
[35] = system: Bacillus subtilis; assay: Antibacterial activity against Bacillus subtilis ATCC 6633 by plate dilution method; assay type: functional
[36] = system: Bacillus cereus; assay: Antibacterial activity against Bacillus cereus ATCC 9946 by plate dilution method; assay type: functional
[37] = system: Escherichia coli; assay: Antibacterial activity against Escherichia coli ATCC 25922 by plate dilution method; assay type: functional
[38] = system: Pseudomonas aeruginosa; assay: Antibacterial activity against Pseudomonas aeruginosa ATCC 27853 by plate dilution method; assay type: functional
[39] = system: Klebsiella pneumoniae; assay: Antibacterial activity against Klebsiella pneumoniae ATCC 700603 by plate dilution method; assay type: functional
[40] = system: Proteus vulgaris; assay: Antibacterial activity against Proteus vulgaris ATCC 9920 by plate dilution method; assay type: functional
[41] = species on record: Mus musculus; assay: Antidepressant activity in Swiss albino mouse assessed as decrease in duration of immobility by tail suspension test relative to control; assay type: functional; set-up: scale not given: the % may be the effect or the level left
[42] = system: Mus musculus; assay: Antidepressant activity in Swiss albino mouse assessed as decrease in duration of immobility at 100 mg/kg, po by forced swimming test relative to control; assay type: functional; set-up: scale not given: the % may be the effect or the level left
[43] = species on record: Mus musculus; assay: Antidepressant activity in mouse assessed as […] by tail suspension test; assay type: functional
[44] = species on record: Mus musculus; assay: Antidepressant activity in mouse assessed as […] by forced swimming test; assay type: functional
[45] = species on record: Mus musculus; assay: Antianxiety activity in mouse assessed as increase in number of entries in different arms; assay type: functional
[46] = system: Aspergillus fumigatus; assay: Antifungal activity against Aspergillus fumigatus assessed as zone of inhibition; assay type: functional
[47] = system: Candida albicans; assay: Antifungal activity against Candida albicans assessed as zone of inhibition; assay type: functional
[48] = system: Aspergillus fumigatus; assay: Antifungal activity against Aspergillus fumigatus; assay type: functional
[49] = system: Candida albicans; assay: Antifungal activity against Candida albicans assessed as fungal growth inhibition; assay type: functional
[50] = system: Bacillus subtilis; assay: Antimicrobial activity against Bacillus subtilis; assay type: functional
[51] = system: Escherichia coli; assay: Antimicrobial activity against Escherichia coli assessed as inhibition of bacterial growth; assay type: functional
[52] = system: Staphylococcus aureus; assay: Antimicrobial activity against Staphylococcus aureus assessed as inhibition of bacterial growth; assay type: functional
[53] = system: Proteus vulgaris; assay: Antimicrobial activity against Proteus vulgaris assessed as inhibition of bacterial growth; assay type: functional

O=C(/C=C/c1ccc(C(F)(F)F)cc1)c1ccc(Nc2nc(NCCO)nc(NCCO)n2)cc1
GI50 [1]: 0.569 µM
CC50 [2]: 19.5 µM
GI50 [3]: 1.5 µM
CC50 [4]: 5.15 µM

COc1ccc(C2CC(c3ccc(Cl)cc3)=NN2c2ccc(S(N)(=O)=O)cc2)cc1OC (stereo not drawn)
Ki [5]: 0.0279 µM
Ki [6]: 0.0274 µM
Ki [7]: 0.0377 µM

Cc1ccc(-c2nnc(SCC(=O)N3N=C(c4cccs4)CC3c3ccc(Cl)cc3)o2)cc1 (stereo not drawn)
IC50 [8]: 16.8 µM
IC50 [9]: 1000 µM
IC50 [10]: 90 µM

O=C(Nc1ccc(Cl)cc1)N1N=C(c2ccc(Cl)s2)CC1c1c(Cl)cccc1Cl (stereo not drawn)
survival at 60 mg/kg [11]: 100%

COc1ccc(C2CC(c3cc(OC)c(OC)c(OC)c3)=NN2C(C)=O)cc1OCc1cn(Cc2ccc(F)c(Cl)c2)nn1 (stereo not drawn)
GI50 [12]: 7 µM
GI50 [13]: 7 µM
GI50 [14]: 7 µM
GI50 [15]: 7 µM

Clc1ccc(-n2cc(C3CC(c4ccc(-c5ccccc5)cc4)=NN3)c(-c3cccs3)n2)cc1 (stereo not drawn)
MIC [16]: 1.56 µg/mL (≈ 3.24 µM)
MIC [17]: 7.8 µg/mL (≈ 16.2 µM)
MIC [18]: 1.56 µg/mL (≈ 3.24 µM)
MIC [19]: 1.56 µg/mL (≈ 3.24 µM)

COc1cc(C)c(C2C=C(c3cc(OC)c(OC)c(OC)c3)N(C(=O)OC(C)C)N2C(=O)OC(C)C)cc1C(C)C (stereo not drawn)
IC50 [20]: < 2 µM
IC50 [21]: 38.8 µM
Activity [22]: 8.03%
Activity [23]: 4.62%
Activity [24]: 25.29%
Activity [25]: 55.6%

O=c1oc2ccc(F)cc2cc1-c1csc(N2N=C(c3ccc(F)cc3)CC2c2cc3ccccc3nc2Cl)n1 (stereo not drawn)
MIC [26]: 50 µg/mL (≈ 87.6 µM)
Activity [27]: 98.95%
Activity [28]: 83.59%
Activity [29]: 98%
Activity [30]: 79.72%
Activity [31]: 91.42%
MIC [32]: 50 µg/mL (≈ 87.6 µM)
MIC [33]: 50 µg/mL (≈ 87.6 µM)
MIC [34]: 50 µg/mL (≈ 87.6 µM)
MIC [35]: 50 µg/mL (≈ 87.6 µM)
MIC [36]: 50 µg/mL (≈ 87.6 µM)
MIC [37]: 50 µg/mL (≈ 87.6 µM)
MIC [38]: 50 µg/mL (≈ 87.6 µM)
MIC [39]: 50 µg/mL (≈ 87.6 µM)
MIC [40]: 50 µg/mL (≈ 87.6 µM)

CN(C)CCCN1c2ccccc2CCc2ccccc21 [IMIPRAMINE]
Activity [41]: 61.96%
Activity [42]: 62.12%
Time [43]: 29.33 s
Time [44]: 29.33 s
Activity [45]: -9.33

Clc1ccc(C2CC(c3cccs3)=NN2c2nc(-c3ccccc3)cs2)c(Cl)c1 (stereo not drawn)
inhibition zone (IZ) [46]: 28 mm
inhibition zone (IZ) [47]: 23 mm
MIC [48]: 312 µg/mL (≈ 685 µM)
MIC [49]: 62.5 µg/mL (≈ 137 µM)
MIC [50]: 9.77 µg/mL (≈ 21.4 µM)
MIC [51]: 9.77 µg/mL (≈ 21.4 µM)
MIC [52]: 9.77 µg/mL (≈ 21.4 µM)
MIC [53]: 9.77 µg/mL (≈ 21.4 µM)

From ChEMBL document CHEMBL5260848, “Recent advancements in the development of bioactive pyrazoline derivatives” (Eur J Med Chem, 2020)
